Test results as given in US7511076B2, “Nitrosation-inducible inhibitors biological macromolecules” (New York University, priority 2000, dated 2009).

Assays:
[1] = test system: Escherichia coil strain BL21; assay: Bactericidal effect of ANSA derivatives on E. coli cultures (CFU count); type: cell-based, Escherichia coli; settings: 20 μg/ml ANSA, 30 minutes, room temperature, start 10^7 CFU ml^−1, *NO and/or PTIO 20 μM where indicated; for CFU, E. coli, rich media: LB broth; for CFU, E. coli, minimal media: M9 minimal media
Procedure: (§1) ANSA Derivatives as a New Class of Antibiotics and Antineoplastic Drugs. ANSA derivatives (shown in FIG. 9) were tested for their cytotoxic capabilities using wild type strains of Gram-negative and Gram-positive bacterial (Escherichia coil strain BL21 and Bacillus subtilis Strain IS75).

[2] = test system: Bacillus subtilis Strain IS75; assay: Bactericidal effect of ANSA derivatives on B. subtilis cultures (CFU count); type: cell-based; settings: 20 μg/ml ANSA, 30 minutes, room temperature, start 10^7 CFU ml^−1, *NO and/or PTIO 20 μM where indicated; for CFU, B. subtilis, rich media: LB broth; for CFU, B. subtilis, minimal media: Spizizen's minimal media
Procedure: as §1

[3] = test system: Escherichia coil strain BL21 and Bacillus subtilis Strain IS75; assay: Bactericidal effect on Gram-negative and Gram-positive bacteria; type: cell-based, Escherichia coli; Bacillus subtilis; settings: for Effect of the additive on the bactericidal effect of ANSA (CFU): NO trap or water solution of NO added with ANSA
Procedure: as §1
In order to be nitrosated, peptidyl-ANSA must undergo cleavage of the C-terminal amino acid residue to relieve the R3 NH2 group. Taking advantage of the chromogenic nature of ANSA compounds, it was possible to determine whether the peptidyl-ANSA were transported in the cell and processed by proteolysis.

[4] = biological target: T1, RNA polymerase from E. coli (RNAP) (Escherichia coli, UniProt P0A7Z4+P0A8T7+P0A8V2); assay: *NO-dependent RNAP inactivation assay (in vitro transcription); type: biochemical; settings: for Effect on transcription by RNAP, agent alone: agent added alone (*NO low dose without ANSA; ANSA without *NO); for *NO-dependent inactivation of RNAP (transcription) in the presence of ANSA: RNAP + ANSA treated with low dose of *NO
T1 construct: made in house
Procedure: Transcription reactions (total volume=20 μl) were performed in a buffer containing 20 mM Tris HCL, pH 7.5, 10 mM MgCl2, 50 mM KCl, 8 μM ATP, GTP, UTP, 1.8 μM CTP, and 0,15 μM [α-^32P] CTP (3000 Ci/mmol) for 5 minutes at 37° C. RNAP was purified as described (Nudler et al, 1996). The DNA template containing the A1 promoter of phage T7 was obtained by polymerase chain reaction from the plasmid pENtR2 (Nudler et al, 1996).
Hydrophobic Amines (ANSA) as *NO-Dependent Enzyme Inhibitors. To investigate whether this mechanism might be functioning in proteins other than BSA, the effect of nitrosation on a completely distinct protein—RNA polymerase from E. coli (RNAP)—was examined. The experiments were done by exposing RNAP to a low dose of *NO, and then adding the DNA template and ribonucleotide substrates to initiate the transcription reaction. For a control, a solution of NO2^− for the *NO was substituted by oxidizing *NO prior to the experiment. […] The *NO-dependent inhibition of RNAP was complex. […] Shorter transcripts represent paused RNAP molecules resulting from the limited amount of CTP in the reaction. […] The complex inhibitory effect of nitrosation on RNAP is not surprising since many potential nitrosation targets are distributed in structurally and functionally distinct regions of the enzyme (Zhang et al, 1999).
To determine whether this process could also occur with RNAP, the mixture of RNAP+ANSA II was treated with *NO (FIG. 3, lane 4).
To further test the autocatalytic mechanism of enzyme inactivation and the key role of nitrosation-azocoupling in this process additional ANSA was synthesized and were tested in the *NO-dependent RNAP inactivation assay (FIG. 3). […] ANSA VI and ANSA VII, with methyl and peptidyl substitutions in the NH2 group, were incapable of forming aryldiazonium cation upon nitrosation. […] This experiment raises the possibility that hydrophobic amines could be used as efficient tools for the *NO-dependent inactivation of enzymes.

[5] = test system: prostatic carcinoma cell lines DU-145 and PC-3 and normal human fibroblasts (WI-38); assay: MTS cytotoxicity assay (CellTiter 96); settings: for Effect of the additive on ANSA cytotoxicity: NO trap or general NOS inhibitor added; for Cytotoxic effect / cell survival (MTS, in words): 0.1-100 μM, 72 h, presence or absence of *NO
Procedure: A second preliminary study used two human hormone-independent prostatic carcinoma cell lines DU-145 and PC-3 (ATCC, Virginia) and normal human fibroblasts (WI-38). The MTS cytotoxicity assay (“CellTiter 96”, Promega) was used to measure the cytotoxicity of several ANSA compounds in the presence or absence of *NO. All compounds tested in vitro were dissolved in DMSO ([…]) and subsequently diluted in the culture medium before treatment of the cultured cells. Tested cells were plated in 96-well plates at a density of 4×10^3 cells/well/200 μL of the proper culture medium and treated with the compounds at concentrations of 0.1-100 μM. In parallel, the cells were treated with 1% of DMSO as control. MTS assay was performed 72 h later according to instructions provided by the manufacturer (Promega). This assay is based on the cellular conversion of the tetrazolium salt, MTS[3-(4,5-dimethylthiazol-2-yl)-5-(3-carboxymethoxyphenyl)-2-(4-sulfophenyl)-2H-tetrazolium, inner salt], into a formazan that is soluble in cell culture medium and is measured at 490 nm directly in 96-well assay plates without additional processing. Absorbency is directly proportional to the number of living cells in culture.
In order to be nitrosated, peptidyl-ANSA must undergo cleavage of the C-terminal amino acid residue to relieve the R3 NH2 group.

BSA = biological target: T2, BSA (Bos taurus, UniProt P02769); assay: Complex formation and nitrosation of ANSA in the presence of BSA (gel filtration, fluorescence, TLC); type: binding; settings: for Nitrosation of ANSA in the ANSA I+ANSA II+BSA mixture: low dose of *NO (5 molar excess), aerobic
T2 construct: purchased Sigma
Procedure: ANSA were synthesized from 5-nitronaphthalenesulphoacids and 5-aminonaphthalenesulphoacids (Reahim). TLC of ANSA and their derivatives was carried out on Silica gel 60 plates (Merck) in the hexane/ethyl acetate system. Gel filtration was performed using the Sephadex G25M size-exclusion column (Pharmacia). Fluorescence of ANSA was observed and measured under 365 nm UV light using BioRad Fluor-S MultiImager system.
The present inventors first synthesized two ANSA with opposite hydrophobic properties (FIG. 12B). In the low-hydrophobic ANSA molecule (ANSA I), the R1 group is —CH3 and the R2 group is —H. The highly hydrophobic ANSA (ANSA II) has C3H7 for both R1 and RExperiments were done by mixing an aqueous solution of ANSA with the test protein, and then initiating the nitrosation reaction by the aerobic addition of an aqueous solution of *NO. Two initial concentrations of *NO were used at 25 molar excess over ANSA (high dose) and a 5 molar excess (low dose).

T1 sequence (P0A8V2 whole entry): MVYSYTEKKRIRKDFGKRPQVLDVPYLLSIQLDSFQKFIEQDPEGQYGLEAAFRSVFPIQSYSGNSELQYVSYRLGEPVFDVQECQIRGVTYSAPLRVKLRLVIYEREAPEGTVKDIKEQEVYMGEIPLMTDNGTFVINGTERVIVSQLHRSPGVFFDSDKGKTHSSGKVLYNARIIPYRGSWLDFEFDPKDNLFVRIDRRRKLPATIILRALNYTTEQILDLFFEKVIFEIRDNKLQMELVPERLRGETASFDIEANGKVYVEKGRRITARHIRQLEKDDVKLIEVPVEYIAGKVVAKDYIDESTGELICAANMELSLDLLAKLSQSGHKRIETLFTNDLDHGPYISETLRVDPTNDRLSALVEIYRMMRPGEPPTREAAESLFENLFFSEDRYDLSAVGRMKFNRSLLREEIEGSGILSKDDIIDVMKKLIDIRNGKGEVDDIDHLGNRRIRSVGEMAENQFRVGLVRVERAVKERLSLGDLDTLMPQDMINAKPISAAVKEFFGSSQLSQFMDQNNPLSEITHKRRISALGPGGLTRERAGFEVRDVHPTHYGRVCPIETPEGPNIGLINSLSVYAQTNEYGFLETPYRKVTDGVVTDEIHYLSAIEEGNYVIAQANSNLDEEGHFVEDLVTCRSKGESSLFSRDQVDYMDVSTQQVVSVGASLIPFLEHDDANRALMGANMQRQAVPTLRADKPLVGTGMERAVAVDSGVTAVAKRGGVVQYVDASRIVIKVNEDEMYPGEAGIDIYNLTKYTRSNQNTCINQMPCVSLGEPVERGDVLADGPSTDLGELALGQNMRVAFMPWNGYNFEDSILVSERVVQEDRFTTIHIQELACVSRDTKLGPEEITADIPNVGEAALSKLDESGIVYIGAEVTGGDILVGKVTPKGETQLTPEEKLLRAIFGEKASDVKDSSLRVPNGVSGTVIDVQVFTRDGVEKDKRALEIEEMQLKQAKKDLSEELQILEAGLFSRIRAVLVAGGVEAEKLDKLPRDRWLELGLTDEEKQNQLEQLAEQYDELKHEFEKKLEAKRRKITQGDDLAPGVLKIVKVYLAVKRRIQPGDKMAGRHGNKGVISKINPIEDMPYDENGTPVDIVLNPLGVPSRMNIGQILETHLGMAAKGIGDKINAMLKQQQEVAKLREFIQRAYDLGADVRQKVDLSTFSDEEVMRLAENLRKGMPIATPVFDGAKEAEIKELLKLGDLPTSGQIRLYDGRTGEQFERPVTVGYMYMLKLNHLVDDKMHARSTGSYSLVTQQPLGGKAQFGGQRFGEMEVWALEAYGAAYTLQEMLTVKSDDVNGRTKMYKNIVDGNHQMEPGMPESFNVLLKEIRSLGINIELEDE
T1 sequence (P0A8T7 whole entry): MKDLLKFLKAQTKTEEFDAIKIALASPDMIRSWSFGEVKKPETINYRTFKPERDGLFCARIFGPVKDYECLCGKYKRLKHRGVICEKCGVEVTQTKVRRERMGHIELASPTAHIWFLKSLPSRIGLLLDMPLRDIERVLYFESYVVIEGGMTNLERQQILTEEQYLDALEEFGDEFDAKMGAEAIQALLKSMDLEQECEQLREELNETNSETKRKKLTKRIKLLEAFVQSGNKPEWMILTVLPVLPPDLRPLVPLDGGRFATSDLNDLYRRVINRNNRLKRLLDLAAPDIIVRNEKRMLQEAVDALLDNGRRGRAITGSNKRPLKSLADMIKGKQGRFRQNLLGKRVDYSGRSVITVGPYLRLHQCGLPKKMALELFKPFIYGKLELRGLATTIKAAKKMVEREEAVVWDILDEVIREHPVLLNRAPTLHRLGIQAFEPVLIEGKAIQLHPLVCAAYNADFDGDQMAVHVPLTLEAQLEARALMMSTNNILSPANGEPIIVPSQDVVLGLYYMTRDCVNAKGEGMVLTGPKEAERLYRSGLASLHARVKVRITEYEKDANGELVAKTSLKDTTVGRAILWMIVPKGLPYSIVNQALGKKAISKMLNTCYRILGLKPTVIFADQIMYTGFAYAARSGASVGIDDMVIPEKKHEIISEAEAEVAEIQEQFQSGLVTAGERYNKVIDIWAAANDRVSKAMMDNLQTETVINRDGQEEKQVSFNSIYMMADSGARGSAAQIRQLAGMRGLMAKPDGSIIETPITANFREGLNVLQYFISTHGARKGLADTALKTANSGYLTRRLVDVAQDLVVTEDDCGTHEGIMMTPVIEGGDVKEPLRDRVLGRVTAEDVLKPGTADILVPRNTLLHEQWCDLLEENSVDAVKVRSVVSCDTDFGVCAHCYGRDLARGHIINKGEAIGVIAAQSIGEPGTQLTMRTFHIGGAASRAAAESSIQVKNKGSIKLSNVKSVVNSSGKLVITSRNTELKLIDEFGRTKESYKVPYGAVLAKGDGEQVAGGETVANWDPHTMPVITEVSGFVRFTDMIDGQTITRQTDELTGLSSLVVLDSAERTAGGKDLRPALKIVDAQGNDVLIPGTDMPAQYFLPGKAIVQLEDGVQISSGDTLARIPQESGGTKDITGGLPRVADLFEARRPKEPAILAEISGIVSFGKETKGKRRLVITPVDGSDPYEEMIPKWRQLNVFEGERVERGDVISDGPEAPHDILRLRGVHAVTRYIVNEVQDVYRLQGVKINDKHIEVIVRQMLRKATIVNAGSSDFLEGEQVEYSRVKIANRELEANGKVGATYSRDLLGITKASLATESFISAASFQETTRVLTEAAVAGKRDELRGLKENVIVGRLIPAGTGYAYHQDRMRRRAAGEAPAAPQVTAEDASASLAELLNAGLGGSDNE
T1 sequence (P0A7Z4 whole entry): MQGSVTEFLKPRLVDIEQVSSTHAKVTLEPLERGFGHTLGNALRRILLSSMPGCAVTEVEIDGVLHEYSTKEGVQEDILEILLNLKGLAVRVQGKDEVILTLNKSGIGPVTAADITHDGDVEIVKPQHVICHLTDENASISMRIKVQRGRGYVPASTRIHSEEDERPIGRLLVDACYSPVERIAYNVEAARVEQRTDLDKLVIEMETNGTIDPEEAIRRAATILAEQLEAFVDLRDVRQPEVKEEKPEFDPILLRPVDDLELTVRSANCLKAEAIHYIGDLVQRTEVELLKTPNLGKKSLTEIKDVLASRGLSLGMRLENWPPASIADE
T1 sequence (P0A800 2-91 partner limits assumed): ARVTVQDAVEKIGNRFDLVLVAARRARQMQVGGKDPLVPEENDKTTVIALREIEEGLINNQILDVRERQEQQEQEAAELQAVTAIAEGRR
T1 sequence (P00579 whole entry partner): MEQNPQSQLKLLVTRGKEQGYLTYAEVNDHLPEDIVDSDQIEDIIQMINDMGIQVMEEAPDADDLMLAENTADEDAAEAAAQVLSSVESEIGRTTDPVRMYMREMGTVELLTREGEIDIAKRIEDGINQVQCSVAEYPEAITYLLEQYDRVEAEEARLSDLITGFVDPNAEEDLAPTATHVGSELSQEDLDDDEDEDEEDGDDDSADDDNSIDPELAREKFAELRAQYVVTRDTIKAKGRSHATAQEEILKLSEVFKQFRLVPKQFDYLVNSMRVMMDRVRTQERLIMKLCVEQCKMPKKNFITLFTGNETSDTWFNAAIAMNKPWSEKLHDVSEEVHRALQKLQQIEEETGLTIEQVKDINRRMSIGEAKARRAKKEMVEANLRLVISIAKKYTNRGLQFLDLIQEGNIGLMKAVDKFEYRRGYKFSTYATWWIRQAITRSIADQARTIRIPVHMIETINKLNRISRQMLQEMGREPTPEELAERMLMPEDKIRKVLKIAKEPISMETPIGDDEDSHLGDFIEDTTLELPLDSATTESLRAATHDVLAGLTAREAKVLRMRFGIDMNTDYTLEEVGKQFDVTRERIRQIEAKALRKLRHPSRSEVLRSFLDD
T2 sequence (P02769 25-607): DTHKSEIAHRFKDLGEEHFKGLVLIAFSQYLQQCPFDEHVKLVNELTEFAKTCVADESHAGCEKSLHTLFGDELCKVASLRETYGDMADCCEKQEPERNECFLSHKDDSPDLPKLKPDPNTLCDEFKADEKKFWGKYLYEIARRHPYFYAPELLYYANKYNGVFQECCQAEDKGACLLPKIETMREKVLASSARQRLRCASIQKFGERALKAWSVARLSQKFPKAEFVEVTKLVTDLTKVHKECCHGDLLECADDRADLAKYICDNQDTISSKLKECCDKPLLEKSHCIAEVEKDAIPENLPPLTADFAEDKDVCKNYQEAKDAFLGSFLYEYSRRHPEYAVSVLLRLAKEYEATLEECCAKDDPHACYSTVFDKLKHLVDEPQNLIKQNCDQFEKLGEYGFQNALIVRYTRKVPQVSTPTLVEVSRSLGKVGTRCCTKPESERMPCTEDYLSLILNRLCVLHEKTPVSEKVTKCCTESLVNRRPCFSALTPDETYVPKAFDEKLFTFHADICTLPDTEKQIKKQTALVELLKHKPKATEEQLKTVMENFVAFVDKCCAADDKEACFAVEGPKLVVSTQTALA

Structure (SMILES) | CFU, E. coli, rich media [1] | CFU, E. coli, minimal media [1] | CFU, B. subtilis, rich media [2] | CFU, B. subtilis, minimal media [2] | *NO-dependent inactivation of RNAP (transcription) in the presence of ANSA [4] | also measured
[N]=O [*NO, Nitric oxide, reference compound] | ≈10^6 CFU ml^−1 | ≈10^6 CFU ml^−1 | ≈10^6 CFU ml^−1 | ≈10^6 CFU ml^−1 | – | Effect of the additive on the bactericidal effect of ANSA (CFU) [3]: restored the bactericidal effect; Effect on transcription by RNAP, agent alone [4]: partially inhibited transcription
CC1(C)N([O])C(c2ccccc2)=[N+]([O-])C1(C)C [PTIO, 2-phenyl-4,4,5,5-tetramethylimidazoline-1-oxyl-3-oxide, reference compound] | – | – | – | – | – | Effect of the additive on the bactericidal effect of ANSA (CFU) [3]: almost completely abolished the inhibitory effect; Effect of the additive on ANSA cytotoxicity [5]: decreased the inhibitory effect
CCCCCNS(=O)(=O)c1cccc2c(N)cccc12 [ANSA V] | 0-20 CFU ml^−1 | ≈10^3 CFU ml^−1 | 10^2-10^3 CFU ml^−1 | 10^2 CFU ml^−1 | completely inactivated RNAP | –
CCCCCNS(=O)(=O)c1cccc2c(NC(=O)C(CCCNC(=N)N)NC(=O)C(CCCNC(=N)N)NC(=O)CNC(=O)CN)cccc12 (stereo not drawn) [ANSA VII] | 0 CFU ml^−1 | – | – | – | unable to enhance inactivation of RNAP | Bactericidal effect / cell survival (in words) [3]: strongest bactericidal effect; Cytotoxic effect / cell survival (MTS, in words) [5]: strong cytotoxic effect
CCCN(CCC)S(=O)(=O)c1cccc2c(N)cccc12 [ANSA II] | – | – | – | – | completely inactivated RNAP | Effect on transcription by RNAP, agent alone [4]: did not affect transcription; Formation of a stable complex with BSA (BSA; gel filtration analysis): able to form a stable complex with BSA; Nitrosation of ANSA in the ANSA I+ANSA II+BSA mixture (BSA): nitrosated
CNS(=O)(=O)c1cccc2c(N)cccc12 [ANSA I] | 10^6-10^7 CFU ml^−1 | ≈10^7 CFU ml^−1 | ≈10^7 CFU ml^−1 | ≈10^7 CFU ml^−1 | had no effect on transcription | Nitrosation of ANSA in the ANSA I+ANSA II+BSA mixture (BSA): intact; Cytotoxic effect / cell survival (MTS, in words) [5]: not
COC(=O)[C@@H](N)CCCNC(=N)N[N+](=O)[O-] [L-NAME, reference compound] | – | – | – | – | – | Effect of the additive on ANSA cytotoxicity [5]: decreased the cytotoxicity
Nc1cccc2c(S(=O)(=O)N3CCOCC3)cccc12 [ANSA IV] | – | – | – | – | partial negative effect | –
CN(C)S(=O)(=O)c1cccc2c(N)cccc12 [ANSA III] | – | – | – | – | partial negative effect | –
O=NO [NO2^−, nitrite, reference compound] | – | – | – | – | – | Effect on transcription by RNAP, agent alone [4]: had no effect
CCCCCNS(=O)(=O)c1cccc2c(NC)cccc12 [ANSA VIII] | ≈10^7 CFU ml^−1 | ≈10^7 CFU ml^−1 | ≈10^7 CFU ml^−1 | ≈10^7 CFU ml^−1 | – | Bactericidal effect / cell survival (in words) [3]: had no effect on cell survival; Cytotoxic effect / cell survival (MTS, in words) [5]: had no effect on cell survival
CNc1cccc2c(S(=O)(=O)N(C)C)cccc12 [ANSA VI] | – | – | – | – | unable to enhance inactivation of RNAP | –
